The results in this text go back to US20110201603A1, “Novel Acylaminobenzamide Derivatives” (Bayer CropScience AG, priority 2008, published 2011).

Common to all, as to format: in vivo
Data set [1] has as its system tobacco cutworm (Spodoptera litura) larvae. The data set can be described thus: Test against tobacco cutworm (Spodoptera litura) larvae, leaf dip. As to conditions: active compound concentration of 100 ppm; third-instar larvae on sweet potato leaves; after 7 days. In a few lines: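 Sweet potato leaves dipped in compound diluted in water (DMF solvent, polyoxyethylene alkyl phenyl ether emulsifier), air-dried, and given to ten third-instar larvae per dish at 25 °C, with fresh leaves on days 2 and 4. Mortality (%) scored after 7 days, averaged over two dishes.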

The subject of a further data set is Musca domestica. The data set can be described thus: Musca domestica test. As to conditions: application rate of 100 ppm; adults, sugar sponge; after 2 days. The method, then: (§1) Solvent: dimethyl sulfoxide
To produce a suitable preparation of active compound, 10 mg of active compound are dissolved in 0.5 ml solvent, and the concentrate is diluted with water to the desired concentration. Prior to the assay, a piece or kitchen sponge is soaked with a mixture of sugar and compound solution and placed into a container. 10 adults (Musca domestica) are placed into the container and closed with a perforated lid. After 2 days mortality in % is determined. 100% means that all the flies have been killed; 0% means that none of the flies have been killed.

In a further data set the test system is Ctenocephalides felis. The data set can be described thus: Ctenocephalides felis test (CTECFE), blood feeding. As to conditions: application rate of 100 ppm in cattle blood; adult unfed fleas; after 2 days. The method, then:
as §1
To produce a suitable preparation of active compound, 10 mg of active compound are dissolved in 0.5 ml solvent, and the concentrate is diluted with cattle blood to the desired concentration.
Approximately 10 to 15 adult unfed (Ctenocepahlides felis) are placed in flea chambers. The blood chamber, are sealed with paraffin on the bottom are filled with cattle blood supplied with compound solution and placed on top of the flea chamber, so that the fleas are able to suck the blood. The blood chamber is heated to 37° C. whereas the flea chamber is kept at room temperature. After 2 days mortality in % is determined. 100% means that all the fleas have been killed; 0% means that none of the fleas have been killed.

Data set [2] has as its system two-spotted spider mite (Tetranychus urticae). The data set can be described thus: Test against two-spotted spider mite (Tetranychus urticae), spray. As to conditions: concentration of 100 ppm; adult mites on kidney beans; after 7 days. Here is the method:
(§2) Unless not mentioned otherwise, the test solutions were prepared as follows:
(§3) Containing as solvent: Dimethylformamide, 3 parts by weight; and as emulsifier: Polyoxyethylene alkyl phenyl ether, 1 part by weight
(§4) To prepare the test solution, 1 part by weight of an active compound is mixed with the above-mentioned amount of solvent containing the above-mentioned amount of emulsifier, and the mixture is diluted with water to the desired concentration.
50 to 100 adult two-spotted spider mites were inoculated onto the leaves of kidney beans at the two-true leaf stage, which plant had been cultivated in a pot having a diameter of 6 cm. After one day, test solution at the appropriate concentration was sprayed thereon in a sufficient amount using a spray gun. After the spraying, the plant pot was placed inside a greenhouse, and after 7 days, the acaricidal activity was calculated. An acaricidal activity of 100% means that all mites were killed, whereas an acaricidal activity of 0% means that no mite was killed.

The test system of data set [3] is cucurbit leaf beetle (Aulacophora femoralis). The data set can be described thus: Test against cucurbit leaf beetle (Aulacophora femoralis), leaf dip. As to conditions: active compound concentration of 100 ppm; second-instar larvae on cucumber leaves; after 7 days. Here is the method: as §2, §3, §4
Cucumber leaves were immersed in the test solution at the appropriate concentration, and the leaves were dried in air. The leaves were then placed in a plastic cup containing sterilized black soil, and five second-instar larvae of cucurbit leaf beetle were released therein. The plastic cup was placed in a temperature-controlled chamber at 25° C. After 7 days, the number of dead larvae was counted, and thus the insecticidal activity was calculated. An insecticidal activity of 100% means that all beetles were killed, whereas an insecticidal activity of 0% means that no beetle was killed.

The subject of another data set is Lucilia cuprina larvae. Kind of data set: Lucilia cuprina test. Conditions: application rate of 100 ppm; larvae on minced horse meat; after 2 days. The method, then:
as §1
To produce a suitable preparation of active compound, 10 mg of active compound are dissolved in 0.5 ml solvent, and the concentrate is diluted with water to the desired concentration. Approximately 20-30 (Lucilia cuprina larvae) are transferred into a test tube containing 1 cm^3 of minced horse meat and 0.5 ml aqueous dilution of test compound. After 2 days mortality in % is determined. 100% means that all the larvae have been killed; 0% means that none of the larvae have been killed.

Data set [4] deals with mustard beetle larvae (Phaedon cochleariae). Kind of data set: Phaedon cochleariae test (PHAECO spray application). As to conditions: application rate of 500 g/ha; Chinese cabbage leaf-disks; after 7 days. The method, then: Solvent: 78.0 parts by weight of acetone and 1.5 parts by weight of dimethylformamide
Emulsifier: 0.5 parts by weight of alkylaryl polyglycolether
To produce a suitable preparation of active compound, 1 part by weight of active compound is mixed with the stated amount of solvent and emulsifier, and the concentrate is diluted with emulsifier-containing water to the desired concentration. Chinese cabbage (Brassica pekinesis) leaf-disks are sprayed with a preparation of the active ingredient of the desired concentration. Once dry, the leaf disks are infested with mustard beetle larvae (Phaedon cochleariae). After 7 days mortality in % is determined. 100% means that all beetle larvae have been killed and 0% means that none of the beetle larvae have been killed.

In turn, `CCOC(=O)Nc1cccc(C(=O)Nc2c(I)cc(C(OCC)(C(F)(F)F)C(F)(F)F)cc2I)c1` [1-24] gave an insecticidal activity in data set [1] of 100%. The “activity (mortality in %)” value in the data set on Musca domestica is reported as 90%.
Regarding `Cc1cc(C(n2cncn2)(C(F)(F)F)C(F)(F)F)cc(Br)c1NC(=O)c1cccc(NC(=O)c2ccccc2F)c1` [2-151], the “activity (mortality in %)” value with Ctenocephalides felis turned out to be 90%.
Consider `CCOC(c1cc(I)c(NC(=O)c2cccc(NC(=O)c3ccc(Cl)nc3)c2)c(I)c1)(C(F)(F)F)C(F)(F)F` [1-60], for which the insecticidal activity in data set [1] and in data set [3] was 100% throughout. The acaricidal activity rate in data set [2] is recorded as 100%. The “activity (mortality in %)” value in the data set with Ctenocephalides felis and in the data set on Musca domestica was 100% throughout.
In data set [1], `Cc1cc(C(n2cc(Cl)cn2)(C(F)(F)F)C(F)(F)F)cc(C)c1NC(=O)c1cccc(NC(=O)c2cccnc2Cl)c1` [2-51] yielded an insecticidal activity of 100%. In data set [2], this molecule came in with an acaricidal activity rate of 100%. The “activity (mortality in %)” value in the data set on Ctenocephalides felis worked out at 100%.
Regarding `Cc1cc(C(n2cc(C(F)(F)F)cn2)C(F)(F)F)cc(C)c1NC(=O)c1cccc(NC(=O)c2cccnc2F)c1` (stereo not shown) [2-103], the insecticidal activity in data set [1] and in data set [3] was 100% each time. For the same molecule, the “activity (mortality in %)” value in the data set on Ctenocephalides felis was determined as 95%.
On to `CCOC(c1cc(I)c(NC(=O)c2cccc(NC(=O)c3cccnc3Cl)c2)c(I)c1)(C(F)(F)F)C(F)(F)F` [1-40], for which the insecticidal activity in data set [1] and in data set [3] was 100% throughout. Besides, the acaricidal activity rate in data set [2] came to 100%. Also, the results for the “activity (mortality in %)” value in the data set on Ctenocephalides felis and in the data set on Musca domestica were 90% and 100%, respectively.
For `Cc1cc(C(n2cc(C(F)(F)F)cn2)C(F)(F)C(F)(F)F)cc(C)c1NC(=O)c1cccc(NC(=O)c2cccnc2Cl)c1` (stereo not shown) [2-104], the insecticidal activity in data set [1] and in data set [3] was 100% in each case. Moreover, the “activity (mortality in %)” value is recorded as 100% with Ctenocephalides felis, 90% in the data set with Lucilia cuprina larvae and 80% in the data set on Musca domestica.
As for `Cc1cc(C(n2cc(Cl)c(C(F)(F)C(F)(F)F)n2)(C(F)(F)F)C(F)(F)F)cc(C)c1NC(=O)c1cccc(NC(=O)c2cccnc2Cl)c1` [2-120], the insecticidal activity in data set [1] was 100%. The “activity (mortality in %)” value in the data set with Lucilia cuprina larvae turned out to be 90%.
For the molecule `Cc1cc(C(n2nc(C)c(Br)c2C)C(F)(F)F)cc(C)c1NC(=O)c1cccc([N+](=O)[O-])c1` (racemic) [11-143], the “activity (mortality in %)” value in data set [4] worked out at 100%.
`C#CCOC(c1cc(I)c(NC(=O)c2cccc(NC(=O)c3cccnc3Cl)c2)c(I)c1)(C(F)(F)F)C(F)(F)F` [1-80] showed an insecticidal activity in data set [1] of 100%. The “activity (mortality in %)” value with Ctenocephalides felis is recorded as 80%; in the data set on Musca domestica, 100%.
In turn, `CCc1cc(C(n2cc(Br)cn2)C(F)(F)F)cc(C)c1NC(=O)c1cccc(NC(=O)c2cccnc2Cl)c1` (stereo not shown) [2-77] gave an insecticidal activity in data set [1] of 100%. Besides, the “activity (mortality in %)” value with Ctenocephalides felis turned out to be 90%.
On to `Cc1cc(C(n2cc(C(F)(F)F)cn2)(C(F)(F)F)C(F)(F)F)cc(C)c1NC(=O)c1cccc(NC(=O)c2cccnc2Cl)c1` [2-109], for which the insecticidal activity in data set [1] and in data set [3] was 100% throughout. Besides, in the data set with Ctenocephalides felis, the “activity (mortality in %)” value is 100%.
For the molecule `CCOC(c1cc(I)c(NC(=O)c2cccc(NC(=O)c3cccnc3F)c2)c(I)c1)(C(F)(F)F)C(F)(F)F` [1-59], the insecticidal activity in data set [1] and in data set [3] was 100% throughout. Further, the “activity (mortality in %)” value was 95% in the data set on Ctenocephalides felis and 100% in the data set on Musca domestica.
For `Cc1cc(C(n2cncn2)(C(F)(F)F)C(F)(F)F)cc(C)c1NC(=O)c1cccc(NC(=O)c2cccnc2Cl)c1` [2-148], the “activity (mortality in %)” value in the data set on Ctenocephalides felis is on record as 95%.
Regarding `Cc1cc(C(n2cc(Br)cn2)(C(F)(F)F)C(F)(F)F)cc(C)c1NC(=O)c1cccc(NC(=O)c2cccnc2Cl)c1` [2-84], the insecticidal activity in data set [1] is 100%. Moreover, the acaricidal activity rate in data set [2] was 100%. Moreover, the “activity (mortality in %)” value in the data set with Ctenocephalides felis is reported as 95%.
Turning to `CCOC(c1cc(I)c(NC(=O)c2cccc(NC(=O)c3ccc(F)cc3)c2)c(I)c1)(C(F)(F)F)C(F)(F)F` [1-28], the insecticidal activity in data set [1] and in data set [3] was 100% each time. In data set [2], this molecule came in with an acaricidal activity rate of 100%.
In the case of `CCOC(c1cc(I)c(NC(=O)c2cccc(NC(=O)c3ccccc3F)c2)c(I)c1)(C(F)(F)F)C(F)(F)F` [1-26], the insecticidal activity in data set [1] and in data set [3] was 100% each time. In addition, the “activity (mortality in %)” value is 100% in the data set on Ctenocephalides felis and 90% in the data set with Musca domestica.
Regarding `Cc1cc(C(n2cc(C(F)(F)F)cn2)(C(F)(F)F)C(F)(F)F)cc(C)c1NC(=O)c1cccc(NC(=O)c2cccnc2F)c1` [2-108], the insecticidal activity in data set [1] and in data set [3] was 100% throughout. For the same molecule, the “activity (mortality in %)” value in the data set on Ctenocephalides felis was 100%.
For the molecule `CCOC(c1cc(I)c(NC(=O)c2cccc(NC(=O)c3ccccc3)c2)c(I)c1)(C(F)(F)F)C(F)(F)F` [1-25], the insecticidal activity in data set [1] and in data set [3] was 100% each time. For the same molecule, the “activity (mortality in %)” value was found to be 90% with Ctenocephalides felis and 80% in the data set with Musca domestica.
For `Cc1cc(C(n2nc(C(F)(F)F)cc2C(F)(F)F)(C(F)(F)F)C(F)(F)F)cc(C)c1NC(=O)c1cccc(NC(=O)c2ccccc2F)c1` [2-124], the insecticidal activity in data set [1] worked out at 100%. The “activity (mortality in %)” value with Lucilia cuprina larvae came out at 90%.
For `CCc1cc(C(n2cc(Cl)cn2)(C(F)(F)F)C(F)(F)F)cc(C)c1NC(=O)c1cccc(NC(=O)c2cccnc2Cl)c1` [2-55], the insecticidal activity in data set [1] and in data set [3] was 100% in each case. The acaricidal activity rate in data set [2] came out at 100%.
As to `CCc1cc(C(Oc2ccc(Cl)cc2)(C(F)(F)F)C(F)(F)F)cc(C)c1NC(=O)c1cccc(NC(=O)c2cccnc2Cl)c1` [1-109], the insecticidal activity in data set [1] and in data set [3] was 100% each time. In addition, the acaricidal activity rate in data set [2] is reported as 100%.
In the case of `CCOC(c1cc(I)c(NC(=O)c2cccc(NC(=O)c3cccc(F)c3)c2)c(I)c1)(C(F)(F)F)C(F)(F)F` [1-27], the insecticidal activity in data set [1] and in data set [3] was 100% in each case. In data set [2], this molecule yielded an acaricidal activity rate of 100%. Further, the “activity (mortality in %)” value in the data set on Ctenocephalides felis is reported as 90%; in the data set on Musca domestica, 80%.
`CCc1cc(C(OCC2CC2)(C(F)(F)F)C(F)(F)F)cc(C)c1NC(=O)c1cccc(NC(=O)c2cccnc2Cl)c1` [1-66]: the insecticidal activity in data set [1] and in data set [3] was 100% each time. In data set [2], this molecule displayed an acaricidal activity rate of 100%.
On to `CCc1cc(C(n2cccc2)(C(F)(F)F)C(F)(F)F)cc(C)c1NC(=O)c1cccc(NC(=O)c2cccnc2Cl)c1` [2-1], for which the insecticidal activity in data set [1] and in data set [3] was 100% each time. The same molecule showed an acaricidal activity rate in data set [2] of 100%.
